These results are taken from US7595330B2, “Benzimidazole thiophene compounds” (SmithKline Beecham Corporation, priority 2005, dated 2009).

pIC50: −log10 of the molar value. Where two headings read alike, the source gives them in different places. Some results are limits rather than exact numbers.

One series addresses T1, PLK1 kinase domain (Homo sapiens, UniProt P53350).
T1 construct: made in house; host or cells: baculovirus infected T. ni cells
Nature of the series: Assay for inhibition of PLK1 (SPA, 33P-ATP, biotinylated peptide substrate). The series is classed as biochemical. As to conditions: 1 μM ATP, 2 nM PLK1 kinase domain; read-out: PLK1 pIC50 (converted). As for the experimental part:
I. Assay for Inhibition of PLK1
All procedures were performed at 4° C. Cells were lysed in 50 mM HEPES, 200 mM NaCl, 50 mM imidazole, 5% glycerol; pH 7.5. The homogenate was centrifuged at 14K rpm in a SLA-1500 rotor for 1 h and the supernatant filtered through a 1.2 micron filter. The supernatant was loaded onto a Nickel chelating Sepharose (Amersham Pharmacia) column and washed with lysis buffer. Protein was eluted using 20%, 30% and 100% buffer B steps where buffer B is 50 mM HEPES, 200 mM NaCl, 300 mM imidazole, 5% glycerol; pH 7.5. Fractions containing PLK were determined by SDS-PAGE. Fractions containing PLK were diluted five-fold with 50 mM HEPES, 1 mM DTT, 5% glycerol; pH 7.5, then loaded on an SP Sepharose (Amersham Pharmacia) column. After washing the column with 50 mM HEPES, 1 mM DTT, 5% glycerol; pH 7.5, PLK was step eluted with 50 mM HEPES, 1 mM DTT, 500 mM NaCl; 5% glycerol; pH 7.5. PLK was concentrated using a 10 kDa molecular weight cutoff membrane and then loaded onto a Superdex 200 gel filtration (Amersham Pharmacia) column equilibrated in 25 mM HEPES, 1 mM DTT, 500 mM NaCl, 5% glycerol; pH 7.5. Fractions containing PLK were determined by SDS-PAGE. PLK was pooled, aliquoted and stored at −80° C. Samples were quality controlled using mass spectrometry, N-terminal sequencing and amino acid analysis.
B. Enzyme activity +/− inhibitors was determined as follows: All measurements were obtained under conditions where signal production increased linearly with time and enzyme. Test compounds were added to white 384-well assay plates (0.1 μL for 10 μL and some 20 μL assays, 1 μL for some 20 μL assays) at variable known concentrations in 100% DMSO. DMSO (1-5% final, as appropriate) and EDTA (65 mM in reaction) were used as controls.
Reaction Mix (10 or 20 μL) was quickly added to each well immediately following addition of enzyme via automated liquid handlers and incubated 1-1.5 h at 22° C. The 20 μL enzymatic reactions were stopped with 50 μL of stop mix (50 mM EDTA, 4.0 mg/ml Streptavidin SPA beads in Standard Dulbecco's PBS (without Mg^2+ and Ca^2+), 50 μM ATP) per well. The 10 μL reactions were stopped with 10 μL of stop mix (50 mM EDTA, 3.0 mg/mL Streptavidin-coupled SPA Imaging Beads (“LeadSeeker”) in Standard Dulbecco's PBS (without Mg^2+ and Ca^2+), 50 μM ATP) per well. Plates were sealed with clear plastic seals, spun at 500×g for 1 min or settled overnight, and counted in Packard TopCount for 30 seconds/well (regular SPA) or imaged using a Viewlux imager (LeadSeeker SPA). Signal above background (EDTA controls) was converted to percent inhibition relative to that obtained in control (DMSO-only) wells.

The next series relates to HCT116. Nature of the series: Methylene blue growth inhibition assay, HCT116. The series is classed as cell-based. The conditions noted are these: Homo sapiens; for pIC50: HCT-116, methylene blue, 72 h, HCT116, read-out: HCT116 IC50. The procedure: (§1) II. Methylene Blue Growth Inhibition Assay—Inhibition of Cell Proliferation by PLK1 Inhibitors
(§2) Generally, exponentially growing cell lines of different tumor origins, cultured in appropriate media containing 10% fetal bovine serum at 37° C. in a 5% CO2 incubator were plated at low density (less than 2000 cells/well) in 96-well plates. […]. Seventy two hours post-treatment, cell numbers were determined using 100 μl per well of methylene blue (Sigma M9140) (0.5% in 50:50 Ethanol:water). Stain was incubated at room temperature for 30 minutes before plates were rinsed and dye solubilized in 1% N-lauroyl sarcosine, sodium salt, (Sigma L5125, in PBS) (further details of a methylene blue assay are described below). Plates were read on a microplate reader, measuring the OD at 620 nm.
(§3) . The data are shown in Table 1 below and represent a compilation of several different experiments, each performed using the general parameters outlined above, although minor variations may have been employed in some instances.
(§4) In one assay, normal human foreskin fibroblasts (HFF), human colon (HCT116, RKO), lung (H460, A549) and breast (MCF7) tumor cell lines were cultured in high glucose DMEM (Life Technologies) containing 10% fetal bovine serum (FBS) at 37° C. in a humidified 5% CO2, 95% air incubator. Cells were harvested using trypsin/EDTA, counted using a haemocytometer, and plated in 100 μL of culture media per well, at the following densities, in a 96-well tissue culture plate (Falcon 3075): HFF 5,000 cells/well, HCT116 3,000 cells/well, RKO 2,500 cells/well, H460 2,500 cells/well, A549 5,000 cells/well, MCF7 4,000 cells/well. The next day, compounds were diluted in low glucose DMEM containing 100 μg/mL gentamicin, at twice the final required concentration, from 10 mM stock solutions in DMSO. 100 μL/well of these dilutions were added to the 100 μL of media currently in the assay plates. Medium containing 0.6% DMSO was added to control wells. The final concentration of DMSO in all wells was 0.3%. Cells were incubated at 37° C., 5% CO2 for 72 h. Medium was removed by aspiration. Cell biomass was estimated by staining cells with 80 μL per well methylene blue (Sigma M9140, 0.5% in 50:50 ethanol:water), and incubation at room temperature for 30-60 min. Stain was removed by aspiration and the plates rinsed by immersion in water, then air-dried. To release stain from the cells, 100 μL of solubilization solution was added (1% N-lauroyl sarcosine, Sodium salt, Sigma L5125, in PBS), and plates were shaken gently for about 30 min. Optical density at 620 nm was measured on a microplate reader. Percent inhibition of cell growth was calculated relative to vehicle treated control wells. […].

The next series concerns H460. Nature of the series: Methylene blue growth inhibition assay, H460. The conditions noted are these: Homo sapiens; for pIC50: NCI-H460, methylene blue, 72 h, H460, read-out: H460 IC50. It counts as cell-based. The procedure: as §1, §2, §3, §4
A further series has as its system MCF7. Description: Methylene blue growth inhibition assay, MCF7. The series is classed as cell-based. As to conditions: Homo sapiens; for pIC50: methylene blue, 72 h, MCF7, read-out: MCF7 IC50. As for the experimental part: as §1, §2, §3, §4
A further series concerns A549. Description: Methylene blue growth inhibition assay, A549. The series is classed as cell-based. The conditions noted are these: Homo sapiens; for pIC50: methylene blue, 72 h, A549, read-out: A549 IC50. As for the experimental part: as §1, §2, §3, §4
The subject of a further series is RKO. Nature of the series: Methylene blue growth inhibition assay, RKO. The series is classed as cell-based. The conditions noted are these: Homo sapiens, 72 h; for pIC50: methylene blue, read-out: RKO IC50. As for the experimental part:
as §1, §2, §3, §4

Series [1] concerns normal human foreskin fibroblasts (HFF). Description: Methylene blue growth inhibition assay, HFF. As to conditions: Fibroblast, 72 h; for pIC50: methylene blue, HFF normal fibroblasts, read-out: HFF IC50. The series is classed as cell-based. As for the experimental part: as §1, §2, §3, §4
For another series, the system named is human plasma proteins. Description: Protein binding to human plasma proteins using equilibrium dialysis. It counts as in vitro ADME. The conditions noted are these: pH 7.4, equilibrium dialysis 6 h, 37° C. The procedure: III. Determination of Protein Binding to Human Plasma Proteins Using Equilibrium Dialysis
96 Well Plate (High Throughput Dialysis): Stock solutions of compounds were spiked into human plasma at a target concentration of 2000 ng/mL. The mixture was inverted gently several times to insure homogeneity and triplicate 50 μL aliquots were collected to verify initial concentrations. Following assembly of dialysis plate (HTDialysis membrane strips, molecular weight cut off limit of 12,000-14,000 daltons), spiked plasma (150 μL) was placed in the donor compartment of the well and Phosphate Buffered Saline pH 7.4 (150 μL) in the receiver compartment. Eight wells were set up per compound and plasma type. Plate was placed in a 37° C. incubator on a plate shaker. Following the 6 h incubation period, the plate was removed. Single 50 μL aliquots from each donor and receiver compartment (per well) were analyzed. Sample analysis was by LC/MS/MS (results reported as Drug Peak Area/Internal Standard Peak Area ratios). Protein binding assay can also be performed using dialysis cells instead of HT Dialysis 96 well plates. In Table 1, % Protein Binding, +=>98%; ++=95-98%: +++=<95%.
For orientation: In equilibrium dialysis only unbound substance equilibrates across the membrane.

Series [2] can be described thus: High throughput solubility assay. The conditions noted are these: aqueous buffer, pH 7.4, 0.05M phosphate buffer. It counts as physicochemical. As for the experimental part: IV. High Throughput Solubility Assay
Two samples are prepared for each compound. One (the standard sample) contains the compound at a fixed concentration of 20 μM in an aqueous/organic mixed solvent cocktail. The other (the test sample) contains the compound at a maximum concentration of 200 μM in pH 7.4, 0.05M phosphate buffer and shaking for 24 h. The test sample is filtered by 0.45μ filter and then spun for 10 min to remove any undissolved solid. HPLC analyses are preformed on these samples. The peak areas are used for computing solubility.

T1 sequence (P53350 21-346): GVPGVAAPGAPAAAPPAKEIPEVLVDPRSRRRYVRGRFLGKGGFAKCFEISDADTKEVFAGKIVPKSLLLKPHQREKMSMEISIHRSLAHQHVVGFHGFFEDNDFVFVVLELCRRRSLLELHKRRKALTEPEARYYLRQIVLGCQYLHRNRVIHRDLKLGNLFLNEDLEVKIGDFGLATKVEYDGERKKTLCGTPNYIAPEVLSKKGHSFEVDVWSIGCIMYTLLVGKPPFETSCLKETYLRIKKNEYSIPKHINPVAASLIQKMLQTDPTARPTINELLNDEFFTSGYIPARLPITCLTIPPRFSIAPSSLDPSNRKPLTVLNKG

Turning to `CS(=O)(=O)c1ccc2ncn(-c3cc(OCc4ccccc4C(F)(F)F)c(C(N)=O)s3)c2c1` [Com. Ex 121, reference compound], at PLK1 kinase domain, the IC50 was 0.01 to 1 µM. For the same molecule, the pIC50 (in the series with HCT116; with H460; in the series with MCF7; in the series on A549; in the series on RKO; in [1]) was less than 6.00 throughout. Moreover, the fraction unbound (commonly free concentration divided by total concentration) at 6 h, 2000 ng/mL with human plasma proteins was in the range of 0.02 to 0.05.
For the molecule `COc1cc2ncn(-c3cc(OC(C)c4ccccc4Cl)c(C(N)=O)s3)c2cc1OC` (stereo not drawn) [Com. Ex 126, reference compound], the IC50 in the series with HCT116 (HCT-116, 72 h, read-out: HCT116 IC50 (μM)) is less than 0.1 µM; with H460 (NCI-H460, 72 h, read-out: H460 IC50 (μM)), less than 0.1 µM; in the series with MCF7 (MCF7, 72 h, read-out: MCF7 IC50 (μM)) it was greater than 1 µM; in the series with A549 (A549, 72 h, read-out: A549 IC50 (μM)) it was less than 0.1 µM; in the series on RKO (read-out: RKO IC50 (μM)) it was less than 0.1 µM; in [1] (read-out: HFF IC50 (μM)), 0.1 to 1 µM. The molecule also gave a fraction unbound at 6 h, 2000 ng/mL in the series on human plasma proteins of less than 0.02.
On to `COc1cc2ncn(-c3cc(OC(C)c4ccccc4C(F)(F)F)c(C(N)=O)s3)c2cc1OC` (stereo not drawn) [Com. Ex 127, reference compound], for which the IC50 on PLK1 kinase domain was less than 0.01 µM. For the same molecule, the pIC50 (usually −log10 of the IC50, conventionally taken in molar units) in the series on HCT116 is 6.00 to 7.00; in the series on H460, greater than 7.00; in the series with MCF7 it was 6.00 to 7.00; in the series with A549, greater than 7.00; in the series with RKO, greater than 7.00; in [1] it was less than 6.00. In the series on human plasma proteins, this molecule showed a fraction unbound at 6 h, 2000 ng/mL of less than 0.02. In addition, in series [2], the solubility (usually the dissolved amount per volume that the medium holds) at 24 h was less than 30 µM.
As to `COc1cc2ncn(-c3cc(OCc4ccccc4C(F)(F)F)c(C(N)=O)s3)c2cc1OCCN1CCN(C)CC1` [Com. Ex 136, reference compound], at PLK1 kinase domain, the IC50 was 0.01 to 1 µM. Also, the pIC50 in the series on HCT116 was 6.00 to 7.00; in the series on H460 it was 6.00 to 7.00; with MCF7, 6.00 to 7.00; with RKO it was 6.00 to 7.00; in series [1] it was less than 6.00. In addition, the fraction unbound at 6 h, 2000 ng/mL in the series with human plasma proteins was greater than 0.05.
In the case of `C[C@@H](Oc1cc(-n2cnc3ccc(CN4CCN(C)CC4)cc32)sc1C(N)=O)c1ccccc1Cl` [Example 4, 3-{[(1R)-1-(2-Chlorophenyl)ethyl]oxy}-5-{6-[(4-methylpiperazin-1-yl)methyl]-1H-benzimidazol-1-yl}thiophene-2-carboxamide], the IC50 at PLK1 kinase domain was less than 0.01 µM. In addition, the pIC50 (in the series with HCT116; with H460; in the series on MCF7; with A549; with RKO; in series [1]) was greater than 7.00 each time. Moreover, in series [2], the solubility at 24 h was greater than 100 µM.
`C[C@@H](Oc1cc(-n2cnc3ccc(OC4CCNCC4)cc32)sc1C(N)=O)c1ccccc1Cl` [Example 6, 3-{[(1R)-1-(2-Chlorophenyl)ethyl]oxy}-5-[6-(4-piperidinyloxy)-1H-benzimidazol-1-yl]-2-thiophenecarboxamide]: the IC50 on PLK1 kinase domain is less than 0.01 µM. The pIC50 was greater than 7.00 in the series on HCT116; greater than 7.00 in the series with H460; greater than 7.00 in the series with A549; greater than 7.00 in the series on RKO; 6.00 to 7.00 in [1]. The fraction unbound at 6 h, 2000 ng/mL in the series on human plasma proteins was greater than 0.05. In addition, the solubility at 24 h in [2] was greater than 100 µM.
In the series with human plasma proteins, `C[C@@H](Oc1cc(-n2cnc3ccc(OC4CCN(C)CC4)cc32)sc1C(N)=O)c1ccccc1C(F)(F)F` [Example 7, 5-{6-[(1-Methyl-4-piperidinyl)oxy]-1H-benzimidazol-1-yl}-3-({(1R)-1-[2-(trifluoromethyl)phenyl]ethyl}oxy)-2-thiophenecarboxamide] yielded a fraction unbound at 6 h, 2000 ng/mL greater than 0.05. Moreover, the solubility at 24 h in series [2] was greater than 100 µM.
As to `C[C@@H](Oc1cc(-n2cnc3ccc(OC4CCN(C)CC4)cc32)sc1C(N)=O)c1ccccc1Cl` [Example 8, 3-{[(1R)-1-(2-Chlorophenyl)ethyl]oxy}-5-{6-[(1-methyl-4-piperidinyl)oxy]-1H-benzimidazol-1-yl}-2-thiophenecarboxamide], in the series with human plasma proteins, the fraction unbound at 6 h, 2000 ng/mL is greater than 0.05. For the same molecule, the solubility at 24 h in [2] was greater than 100 µM.
